Source: article PMC9150124, “Design of a Potent, Selective, and Brain-Penetrant Inhibitor of Wnt-Deactivating Enzyme Notum by Optimization of a Crystallographic Fragment Hit” (Journal of Medicinal Chemistry, 2022)

Assays:
Assay in all cases: SelectScreen kinase profiling, SSBK ZLyte SP Technology
Type in all cases: biochemical
[1] = molecular target: kinase named in conditions (Homo sapiens, UniProt O14965); settings: AURKA (Aurora A), 10 μM
Procedure: (§1) Kinase selectivity screening was performed by Thermo Fisher Scientific (Paisley, U.K.) in their SelectScreen Biochemical Kinase Profiling Service. Assay information and data are presented in the Supporting Information.
(§2) Kinase selectivity screening was performed by ThermoFisher Scientific (Paisley, U.K.) in their SelectScreenTM
(§3) Biochemical Kinase Profiling service .

[2] = molecular target: kinase named in conditions (Homo sapiens, UniProt P08581); settings: MET (cMet), 10 μM
Procedure: as §1, §2, §3

[3] = molecular target: kinase named in conditions (Homo sapiens, UniProt P00533, G719S); settings: EGFR (ErbB1) G719S, 10 μM
Procedure: as §1, §2, §3

[4] = molecular target: kinase named in conditions (Homo sapiens, UniProt Q02156); settings: PRKCE (PKC epsilon), 10 μM
Procedure: as §1, §2, §3

[5] = molecular target: kinase named in conditions (Homo sapiens, UniProt P54753); settings: EPHB3, 10 μM
Procedure: as §1, §2, §3

[6] = molecular target: kinase named in conditions (Homo sapiens, UniProt Q13464); settings: ROCK1, 10 μM
Procedure: as §1, §2, §3

[7] = molecular target: kinase named in conditions (Homo sapiens, UniProt P28482); settings: MAPK1 (ERK2), 10 μM
Procedure: as §1, §2, §3

[8] = molecular target: kinase named in conditions (Homo sapiens, UniProt Q8TDC3); settings: BRSK1 (SAD1), 10 μM
Procedure: as §1, §2, §3

[9] = molecular target: kinase named in conditions (Homo sapiens, UniProt Q16644); settings: MAPKAPK3, 10 μM
Procedure: as §1, §2, §3

[10] = molecular target: kinase named in conditions (Homo sapiens, UniProt P16234, D842V); settings: PDGFRA D842V, 10 μM
Procedure: as §1, §2, §3

[11] = molecular target: kinase named in conditions (Homo sapiens, UniProt P49759); settings: CLK1, 10 μM
Procedure: as §1, §2, §3

[12] = molecular target: kinase named in conditions (Homo sapiens, UniProt Q8N568); settings: DCAMKL2 (DCK2), 10 μM
Procedure: as §1, §2, §3

[13] = molecular target: kinase named in conditions (Homo sapiens, UniProt P29597); settings: TYK2, 10 μM
Procedure: as §1, §2, §3

[14] = molecular target: kinase named in conditions (Homo sapiens, UniProt Q56UN5); settings: MAP3K19 (YSK4), 10 μM
Procedure: as §1, §2, §3

[15] = molecular target: kinase named in conditions (Homo sapiens, UniProt Q16816); settings: PHKG1, 10 μM
Procedure: as §1, §2, §3

[16] = molecular target: kinase named in conditions (Homo sapiens, UniProt P00533, C797S/L858R/T790M); settings: EGFR (ErbB1) T790M C797S L858R, 10 μM
Procedure: as §1, §2, §3

[17] = molecular target: kinase named in conditions (Homo sapiens, UniProt P43405); settings: SYK, 10 μM
Procedure: as §1, §2, §3

[18] = molecular target: kinase named in conditions (Homo sapiens, UniProt P00533, L858R); settings: EGFR (ErbB1) L858R, 10 μM
Procedure: as §1, §2, §3

[19] = molecular target: kinase named in conditions (Homo sapiens, UniProt P45983); settings: MAPK8 (JNK1), 10 μM
Procedure: as §1, §2, §3

[20] = molecular target: kinase named in conditions (Homo sapiens, UniProt P14616); settings: INSRR (IRR), 10 μM
Procedure: as §1, §2, §3

[21] = molecular target: kinase named in conditions (Homo sapiens, UniProt Q16512); settings: PKN1 (PRK1), 10 μM
Procedure: as §1, §2, §3

[22] = molecular target: kinase named in conditions (Homo sapiens, UniProt Q9Y463); settings: DYRK1B, 10 μM
Procedure: as §1, §2, §3

[23] = molecular target: kinase named in conditions (Homo sapiens, UniProt P07949, V804E); settings: RET V804E, 10 μM
Procedure: as §1, §2, §3

[24] = molecular target: kinase named in conditions (Homo sapiens, UniProt P05129); settings: PRKCG (PKC gamma), 10 μM
Procedure: as §1, §2, §3

[25] = molecular target: kinase named in conditions (Homo sapiens, UniProt P21709); settings: EPHA1, 10 μM
Procedure: as §1, §2, §3

[26] = molecular target: kinase named in conditions (Homo sapiens, UniProt Q13557); settings: CAMK2D (CaMKII delta), 10 μM
Procedure: as §1, §2, §3

[27] = molecular target: kinase named in conditions (Homo sapiens, UniProt P17252); settings: PRKCA (PKC alpha), 10 μM
Procedure: as §1, §2, §3

[28] = molecular target: kinase named in conditions (Homo sapiens, UniProt Q9NQU5); settings: PAK6, 10 μM
Procedure: as §1, §2, §3

[29] = molecular target: kinase named in conditions (Homo sapiens, UniProt P12931); settings: SRC, 10 μM
Procedure: as §1, §2, §3

[30] = molecular target: kinase named in conditions (Homo sapiens, UniProt Q9P1W9); settings: PIM2, 10 μM
Procedure: as §1, §2, §3

[31] = molecular target: kinase named in conditions (Homo sapiens, UniProt P51451); settings: BLK, 10 μM
Procedure: as §1, §2, §3

[32] = molecular target: kinase named in conditions (Homo sapiens, UniProt P52564); settings: MAP2K6 (MKK6), 10 μM
Procedure: as §1, §2, §3

[33] = molecular target: kinase named in conditions (Homo sapiens, UniProt P08581, Y1235D); settings: MET (cMet) Y1235D, 10 μM
Procedure: as §1, §2, §3

[34] = molecular target: kinase named in conditions (Homo sapiens, UniProt P29323); settings: EPHB2, 10 μM
Procedure: as §1, §2, §3

Sequence of kinase named in conditions (Homo sapiens, UniProt Q9NQU5) (Q9NQU5 whole entry): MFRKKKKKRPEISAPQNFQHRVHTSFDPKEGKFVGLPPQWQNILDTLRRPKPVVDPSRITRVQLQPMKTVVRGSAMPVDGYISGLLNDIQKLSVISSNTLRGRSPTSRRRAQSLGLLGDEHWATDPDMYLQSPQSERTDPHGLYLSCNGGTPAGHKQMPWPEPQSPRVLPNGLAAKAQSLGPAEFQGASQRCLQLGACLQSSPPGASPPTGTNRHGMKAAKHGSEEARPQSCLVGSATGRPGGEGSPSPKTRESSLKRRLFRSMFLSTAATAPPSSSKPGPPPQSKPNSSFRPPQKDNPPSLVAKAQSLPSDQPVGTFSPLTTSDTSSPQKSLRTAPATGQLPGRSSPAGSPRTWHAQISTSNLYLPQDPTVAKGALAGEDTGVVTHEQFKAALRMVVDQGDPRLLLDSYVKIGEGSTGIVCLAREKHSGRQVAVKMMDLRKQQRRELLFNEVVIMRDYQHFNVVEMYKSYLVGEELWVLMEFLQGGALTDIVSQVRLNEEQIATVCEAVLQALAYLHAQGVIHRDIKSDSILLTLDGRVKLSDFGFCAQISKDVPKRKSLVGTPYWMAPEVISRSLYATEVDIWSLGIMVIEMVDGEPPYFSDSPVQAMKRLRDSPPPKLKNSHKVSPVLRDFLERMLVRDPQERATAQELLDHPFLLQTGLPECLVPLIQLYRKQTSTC
Sequence of kinase named in conditions (Homo sapiens, UniProt Q13557) (Q13557 whole entry): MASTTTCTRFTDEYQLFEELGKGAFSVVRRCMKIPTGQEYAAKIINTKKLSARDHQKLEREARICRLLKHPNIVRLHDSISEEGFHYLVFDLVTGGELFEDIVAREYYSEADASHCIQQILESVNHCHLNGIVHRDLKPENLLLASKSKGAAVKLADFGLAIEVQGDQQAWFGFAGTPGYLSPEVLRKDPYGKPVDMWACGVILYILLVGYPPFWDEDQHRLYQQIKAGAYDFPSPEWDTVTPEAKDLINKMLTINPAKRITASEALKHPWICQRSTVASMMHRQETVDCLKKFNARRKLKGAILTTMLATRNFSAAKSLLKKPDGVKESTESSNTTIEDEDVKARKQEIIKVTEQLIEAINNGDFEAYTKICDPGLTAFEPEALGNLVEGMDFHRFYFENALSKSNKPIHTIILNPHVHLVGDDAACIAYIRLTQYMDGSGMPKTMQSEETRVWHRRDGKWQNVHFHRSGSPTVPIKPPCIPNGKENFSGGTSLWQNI
Sequence of kinase named in conditions (Homo sapiens, UniProt P28482) (P28482 whole entry): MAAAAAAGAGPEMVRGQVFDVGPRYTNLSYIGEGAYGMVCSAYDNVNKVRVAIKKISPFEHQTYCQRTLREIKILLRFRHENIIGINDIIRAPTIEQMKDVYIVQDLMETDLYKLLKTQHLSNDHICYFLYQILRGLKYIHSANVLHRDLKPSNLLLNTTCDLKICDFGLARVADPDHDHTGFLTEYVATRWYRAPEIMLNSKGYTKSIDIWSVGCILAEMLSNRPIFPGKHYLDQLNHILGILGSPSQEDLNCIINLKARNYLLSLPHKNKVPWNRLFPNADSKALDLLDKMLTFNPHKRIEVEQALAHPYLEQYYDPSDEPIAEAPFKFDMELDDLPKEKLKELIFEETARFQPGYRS
Sequence of kinase named in conditions (Homo sapiens, UniProt P00533, G719S) (P00533 25-1210 G719S): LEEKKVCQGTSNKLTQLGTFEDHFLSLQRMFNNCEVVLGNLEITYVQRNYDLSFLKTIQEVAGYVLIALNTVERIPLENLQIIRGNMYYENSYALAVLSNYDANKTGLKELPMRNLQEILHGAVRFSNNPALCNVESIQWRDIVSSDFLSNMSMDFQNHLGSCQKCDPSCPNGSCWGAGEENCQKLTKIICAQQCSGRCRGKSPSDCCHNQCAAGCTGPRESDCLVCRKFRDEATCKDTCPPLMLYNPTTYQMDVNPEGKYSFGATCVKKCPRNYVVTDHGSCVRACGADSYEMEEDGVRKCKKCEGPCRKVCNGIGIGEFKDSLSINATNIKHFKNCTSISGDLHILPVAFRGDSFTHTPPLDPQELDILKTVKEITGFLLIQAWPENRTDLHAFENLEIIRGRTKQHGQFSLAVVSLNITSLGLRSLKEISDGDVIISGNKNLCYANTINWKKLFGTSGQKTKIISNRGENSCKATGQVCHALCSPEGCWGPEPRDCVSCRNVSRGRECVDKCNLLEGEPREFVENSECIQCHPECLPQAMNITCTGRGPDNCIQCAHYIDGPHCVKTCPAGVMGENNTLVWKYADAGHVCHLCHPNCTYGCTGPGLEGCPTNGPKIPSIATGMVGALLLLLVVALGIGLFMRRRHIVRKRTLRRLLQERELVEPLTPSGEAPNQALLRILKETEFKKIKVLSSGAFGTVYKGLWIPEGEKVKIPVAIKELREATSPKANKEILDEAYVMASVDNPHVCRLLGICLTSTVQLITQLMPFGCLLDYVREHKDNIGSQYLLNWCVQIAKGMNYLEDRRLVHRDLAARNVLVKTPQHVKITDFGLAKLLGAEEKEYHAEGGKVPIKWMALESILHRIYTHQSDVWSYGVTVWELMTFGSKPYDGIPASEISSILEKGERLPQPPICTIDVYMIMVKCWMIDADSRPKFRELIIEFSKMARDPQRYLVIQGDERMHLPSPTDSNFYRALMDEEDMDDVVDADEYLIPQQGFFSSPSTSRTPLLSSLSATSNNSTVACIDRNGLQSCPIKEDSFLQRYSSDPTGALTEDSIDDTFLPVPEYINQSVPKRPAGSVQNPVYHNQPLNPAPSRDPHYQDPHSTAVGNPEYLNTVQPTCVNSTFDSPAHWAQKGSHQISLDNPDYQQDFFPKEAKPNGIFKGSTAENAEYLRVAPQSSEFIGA
Sequence of kinase named in conditions (Homo sapiens, UniProt Q9Y463) (Q9Y463 whole entry): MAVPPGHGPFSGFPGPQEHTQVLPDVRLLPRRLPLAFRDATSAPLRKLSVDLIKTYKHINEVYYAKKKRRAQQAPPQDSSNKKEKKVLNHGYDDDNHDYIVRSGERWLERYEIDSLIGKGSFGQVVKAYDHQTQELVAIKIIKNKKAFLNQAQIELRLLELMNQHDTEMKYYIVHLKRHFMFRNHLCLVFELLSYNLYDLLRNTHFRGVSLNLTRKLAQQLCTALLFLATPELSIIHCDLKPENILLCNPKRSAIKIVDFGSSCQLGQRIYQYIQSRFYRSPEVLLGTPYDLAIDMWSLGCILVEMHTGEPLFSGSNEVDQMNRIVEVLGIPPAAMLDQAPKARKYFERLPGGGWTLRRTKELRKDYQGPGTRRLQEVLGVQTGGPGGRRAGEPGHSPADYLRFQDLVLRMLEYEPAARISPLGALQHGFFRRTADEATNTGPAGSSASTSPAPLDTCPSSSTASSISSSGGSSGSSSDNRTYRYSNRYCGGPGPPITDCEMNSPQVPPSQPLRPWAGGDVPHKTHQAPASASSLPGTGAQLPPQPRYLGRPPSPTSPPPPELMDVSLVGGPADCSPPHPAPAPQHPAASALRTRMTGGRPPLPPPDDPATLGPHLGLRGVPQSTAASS
Sequence of kinase named in conditions (Homo sapiens, UniProt P12931) (P12931 whole entry): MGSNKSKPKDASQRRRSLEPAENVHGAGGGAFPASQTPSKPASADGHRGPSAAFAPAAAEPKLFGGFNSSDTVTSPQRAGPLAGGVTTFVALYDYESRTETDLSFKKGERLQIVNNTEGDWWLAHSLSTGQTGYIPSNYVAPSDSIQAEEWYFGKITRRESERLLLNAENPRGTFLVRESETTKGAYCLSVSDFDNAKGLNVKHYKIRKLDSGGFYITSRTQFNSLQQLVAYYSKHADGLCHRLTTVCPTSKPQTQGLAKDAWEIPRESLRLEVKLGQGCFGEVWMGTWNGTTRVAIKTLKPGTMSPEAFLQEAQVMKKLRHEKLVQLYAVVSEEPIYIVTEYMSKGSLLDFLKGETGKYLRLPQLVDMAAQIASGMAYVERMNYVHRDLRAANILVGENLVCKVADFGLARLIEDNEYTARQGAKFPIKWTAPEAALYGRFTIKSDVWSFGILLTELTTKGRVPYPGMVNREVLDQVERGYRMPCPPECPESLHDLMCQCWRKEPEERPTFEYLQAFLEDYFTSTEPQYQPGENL
Sequence of kinase named in conditions (Homo sapiens, UniProt Q16644) (Q16644 whole entry): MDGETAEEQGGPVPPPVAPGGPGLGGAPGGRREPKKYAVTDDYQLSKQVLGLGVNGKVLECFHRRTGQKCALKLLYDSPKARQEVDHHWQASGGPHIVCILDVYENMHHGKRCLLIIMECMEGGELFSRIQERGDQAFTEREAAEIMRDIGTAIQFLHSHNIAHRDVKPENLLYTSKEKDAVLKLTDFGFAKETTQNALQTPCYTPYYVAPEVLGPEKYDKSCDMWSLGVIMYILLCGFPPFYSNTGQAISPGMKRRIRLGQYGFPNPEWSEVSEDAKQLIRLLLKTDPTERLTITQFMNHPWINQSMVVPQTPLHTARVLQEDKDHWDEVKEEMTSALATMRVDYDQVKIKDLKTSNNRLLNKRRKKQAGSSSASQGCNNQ

`FC(F)(F)c1c(Cl)ccc(-n2ccnn2)c1Cl` [8l, 1-(2,4-Dichloro-3-(trifluoromethyl)phenyl)-1H-1,2,3-triazole] gave an inhibition at 10 µM [1] of 4%, an inhibition at 10 µM [2] of 8% and an inhibition at 10 µM [3] of -1%. The inhibition at 10 µM [4] was -1%, the inhibition at 10 µM [5] was -8% and the inhibition at 10 µM [6] was 8%. The inhibition at 10 µM [7] was -2%, the inhibition at 10 µM [8] was 0% and the inhibition at 10 µM [9] was 1%. The inhibition at 10 µM [10] was 0%, the inhibition at 10 µM [11] was 0% and the inhibition at 10 µM [12] was 1%. It also gave an inhibition at 10 µM [13] of 7%, an inhibition at 10 µM [14] of -5% and an inhibition at 10 µM [15] of 8%. It also gave an inhibition at 10 µM [16] of -17%, an inhibition at 10 µM [17] of 6% and an inhibition at 10 µM [18] of 2%. For the same compound, the inhibition at 10 µM [19] was 6%, the inhibition at 10 µM [20] was 11% and the inhibition at 10 µM [21] was -1%. The inhibition at 10 µM [22] was 16%, the inhibition at 10 µM [23] was 4% and the inhibition at 10 µM [24] was 12%. The inhibition at 10 µM [25] was 4%, the inhibition at 10 µM [26] was 7% and the inhibition at 10 µM [27] was -18%. The inhibition at 10 µM [28] was 15%, the inhibition at 10 µM [29] was 6% and the inhibition at 10 µM [30] was 5%. For the same compound, the inhibition at 10 µM [31] was 2%, the inhibition at 10 µM [32] was 3% and the inhibition at 10 µM [33] was 0%. The inhibition at 10 µM [34] was 2%.
